Assay results from paper PMC11167047 (Cell Death Discovery, 2024).

Legend:
Assay in all cases: kinome screen (33PanQinase)
Format in all cases: biochemical
MKNK1 = target: T1, MKNK1 (Homo sapiens, UniProt Q9BUB5)
T1 construct: purchased Reaction Biology Europe GmbH (formerly ProQinase)
Procedure: (§1) The Kinome Screening was performed by Reaction Biology Europe GmbH (http://reactionbiology.com; Freiburg i. Br., Germany).

PAK7 = target: T2, PAK7 (Homo sapiens, UniProt Q9P286)
T2 construct: purchased Reaction Biology Europe GmbH (formerly ProQinase)
Procedure: as §1

BMPR1B = target: T3, BMPR1B (Homo sapiens, UniProt O00238)
T3 construct: purchased Reaction Biology Europe GmbH (formerly ProQinase)
T3 sequence (O00238 14-502): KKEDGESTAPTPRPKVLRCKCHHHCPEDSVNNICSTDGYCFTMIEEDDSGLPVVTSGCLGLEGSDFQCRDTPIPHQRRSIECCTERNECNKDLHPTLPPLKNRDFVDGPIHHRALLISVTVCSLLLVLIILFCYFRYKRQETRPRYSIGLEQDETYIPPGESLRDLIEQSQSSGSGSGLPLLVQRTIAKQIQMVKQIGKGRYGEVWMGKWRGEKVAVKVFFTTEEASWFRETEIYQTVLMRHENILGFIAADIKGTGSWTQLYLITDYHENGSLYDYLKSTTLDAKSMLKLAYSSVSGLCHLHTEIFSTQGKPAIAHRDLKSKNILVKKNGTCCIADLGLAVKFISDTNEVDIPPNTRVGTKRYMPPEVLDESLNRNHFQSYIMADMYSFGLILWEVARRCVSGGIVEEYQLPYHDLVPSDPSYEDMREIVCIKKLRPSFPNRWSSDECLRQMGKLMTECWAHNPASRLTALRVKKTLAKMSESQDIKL
Procedure: as §1

EPHA5 = target: T4, EPHA5 (Homo sapiens, UniProt P54756)
T4 construct: purchased Reaction Biology Europe GmbH (formerly ProQinase)
Procedure: as §1

CAMK1D = target: T5, CAMK1D (Homo sapiens, UniProt Q8IU85)
T5 construct: purchased Reaction Biology Europe GmbH (formerly ProQinase)
T5 sequence (Q8IU85 whole entry): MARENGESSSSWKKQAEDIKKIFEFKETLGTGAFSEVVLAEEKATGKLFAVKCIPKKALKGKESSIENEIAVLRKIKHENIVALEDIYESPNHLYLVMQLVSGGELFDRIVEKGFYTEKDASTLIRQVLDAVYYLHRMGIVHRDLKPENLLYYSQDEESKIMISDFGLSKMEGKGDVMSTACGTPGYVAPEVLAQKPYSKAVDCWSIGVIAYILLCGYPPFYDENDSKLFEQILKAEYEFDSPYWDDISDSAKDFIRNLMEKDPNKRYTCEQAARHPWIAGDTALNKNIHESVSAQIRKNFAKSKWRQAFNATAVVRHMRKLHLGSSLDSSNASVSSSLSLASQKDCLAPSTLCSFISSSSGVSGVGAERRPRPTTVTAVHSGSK
Procedure: as §1

MARK1 = target: T6, MARK1 (Homo sapiens, UniProt Q9P0L2)
T6 construct: purchased Reaction Biology Europe GmbH (formerly ProQinase)
Procedure: as §1

PKCμ = target: T7, PKCμ (Homo sapiens, UniProt Q15139)
T7 construct: purchased Reaction Biology Europe GmbH (formerly ProQinase)
T7 sequence (Q15139 1-912): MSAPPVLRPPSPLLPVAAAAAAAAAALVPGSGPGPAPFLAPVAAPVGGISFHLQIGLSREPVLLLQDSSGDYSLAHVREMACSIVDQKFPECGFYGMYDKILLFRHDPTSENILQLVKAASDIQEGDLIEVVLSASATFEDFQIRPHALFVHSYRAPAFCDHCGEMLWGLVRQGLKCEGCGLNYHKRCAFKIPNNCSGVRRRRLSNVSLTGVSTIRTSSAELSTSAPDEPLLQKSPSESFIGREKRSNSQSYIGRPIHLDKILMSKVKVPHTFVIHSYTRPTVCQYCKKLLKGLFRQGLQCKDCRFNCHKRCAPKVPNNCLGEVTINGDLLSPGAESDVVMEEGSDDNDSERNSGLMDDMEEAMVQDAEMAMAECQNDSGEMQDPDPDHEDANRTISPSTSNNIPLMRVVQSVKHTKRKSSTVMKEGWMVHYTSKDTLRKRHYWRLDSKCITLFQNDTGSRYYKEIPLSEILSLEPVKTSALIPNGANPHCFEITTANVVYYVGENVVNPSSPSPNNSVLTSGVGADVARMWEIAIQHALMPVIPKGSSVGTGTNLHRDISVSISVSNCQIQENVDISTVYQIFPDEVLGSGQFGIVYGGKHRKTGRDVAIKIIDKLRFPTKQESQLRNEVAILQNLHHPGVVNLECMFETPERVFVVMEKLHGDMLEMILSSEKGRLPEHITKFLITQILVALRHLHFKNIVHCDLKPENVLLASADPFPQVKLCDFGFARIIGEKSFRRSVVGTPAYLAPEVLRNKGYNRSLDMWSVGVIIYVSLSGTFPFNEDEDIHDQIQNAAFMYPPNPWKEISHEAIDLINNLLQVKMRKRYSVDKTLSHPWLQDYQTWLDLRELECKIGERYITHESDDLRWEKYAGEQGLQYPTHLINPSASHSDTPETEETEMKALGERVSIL
Procedure: as §1

HIPK2 = target: T8, HIPK2 (Homo sapiens, UniProt Q9H2X6)
T8 construct: purchased Reaction Biology Europe GmbH (formerly ProQinase)
T8 sequence (Q9H2X6 whole entry): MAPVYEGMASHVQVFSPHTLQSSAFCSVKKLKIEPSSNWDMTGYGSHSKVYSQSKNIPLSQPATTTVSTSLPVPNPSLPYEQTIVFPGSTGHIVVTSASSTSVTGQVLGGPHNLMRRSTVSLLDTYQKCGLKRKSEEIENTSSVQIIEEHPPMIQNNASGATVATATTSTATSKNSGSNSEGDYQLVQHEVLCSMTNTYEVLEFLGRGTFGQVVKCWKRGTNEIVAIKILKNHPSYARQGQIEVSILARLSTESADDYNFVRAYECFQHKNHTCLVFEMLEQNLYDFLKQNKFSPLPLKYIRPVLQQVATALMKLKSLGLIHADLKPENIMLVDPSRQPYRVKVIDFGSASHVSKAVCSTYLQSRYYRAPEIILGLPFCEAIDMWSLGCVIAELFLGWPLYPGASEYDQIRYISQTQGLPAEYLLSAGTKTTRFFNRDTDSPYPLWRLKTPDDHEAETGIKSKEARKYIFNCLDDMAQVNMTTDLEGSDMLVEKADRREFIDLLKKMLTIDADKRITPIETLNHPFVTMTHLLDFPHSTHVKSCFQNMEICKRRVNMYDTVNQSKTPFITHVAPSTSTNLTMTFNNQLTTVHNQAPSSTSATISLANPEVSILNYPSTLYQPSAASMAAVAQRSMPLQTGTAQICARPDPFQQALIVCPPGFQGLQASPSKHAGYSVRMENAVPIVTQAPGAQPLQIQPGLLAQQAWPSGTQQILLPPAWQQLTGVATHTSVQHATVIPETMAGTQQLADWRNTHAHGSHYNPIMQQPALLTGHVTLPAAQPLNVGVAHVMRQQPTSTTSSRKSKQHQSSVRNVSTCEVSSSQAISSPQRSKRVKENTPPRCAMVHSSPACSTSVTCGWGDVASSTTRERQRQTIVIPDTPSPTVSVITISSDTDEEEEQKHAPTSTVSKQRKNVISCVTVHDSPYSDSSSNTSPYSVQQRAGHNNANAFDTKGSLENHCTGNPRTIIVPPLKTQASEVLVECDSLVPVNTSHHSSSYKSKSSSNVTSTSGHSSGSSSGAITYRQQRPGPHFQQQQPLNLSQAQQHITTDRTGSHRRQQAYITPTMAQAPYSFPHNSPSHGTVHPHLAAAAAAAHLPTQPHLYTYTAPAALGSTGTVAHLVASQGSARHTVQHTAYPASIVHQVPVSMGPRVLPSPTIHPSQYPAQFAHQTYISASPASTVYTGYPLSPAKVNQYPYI
Procedure: as §1

ABL1 = target: T9, ABL1 (Homo sapiens, UniProt P00519)
T9 construct: purchased Reaction Biology Europe GmbH (formerly ProQinase)
Procedure: as §1

MYLK = target: T10, MYLK (Homo sapiens, UniProt Q15746)
T10 construct: purchased Reaction Biology Europe GmbH (formerly ProQinase)
T10 sequence (Q15746 whole entry): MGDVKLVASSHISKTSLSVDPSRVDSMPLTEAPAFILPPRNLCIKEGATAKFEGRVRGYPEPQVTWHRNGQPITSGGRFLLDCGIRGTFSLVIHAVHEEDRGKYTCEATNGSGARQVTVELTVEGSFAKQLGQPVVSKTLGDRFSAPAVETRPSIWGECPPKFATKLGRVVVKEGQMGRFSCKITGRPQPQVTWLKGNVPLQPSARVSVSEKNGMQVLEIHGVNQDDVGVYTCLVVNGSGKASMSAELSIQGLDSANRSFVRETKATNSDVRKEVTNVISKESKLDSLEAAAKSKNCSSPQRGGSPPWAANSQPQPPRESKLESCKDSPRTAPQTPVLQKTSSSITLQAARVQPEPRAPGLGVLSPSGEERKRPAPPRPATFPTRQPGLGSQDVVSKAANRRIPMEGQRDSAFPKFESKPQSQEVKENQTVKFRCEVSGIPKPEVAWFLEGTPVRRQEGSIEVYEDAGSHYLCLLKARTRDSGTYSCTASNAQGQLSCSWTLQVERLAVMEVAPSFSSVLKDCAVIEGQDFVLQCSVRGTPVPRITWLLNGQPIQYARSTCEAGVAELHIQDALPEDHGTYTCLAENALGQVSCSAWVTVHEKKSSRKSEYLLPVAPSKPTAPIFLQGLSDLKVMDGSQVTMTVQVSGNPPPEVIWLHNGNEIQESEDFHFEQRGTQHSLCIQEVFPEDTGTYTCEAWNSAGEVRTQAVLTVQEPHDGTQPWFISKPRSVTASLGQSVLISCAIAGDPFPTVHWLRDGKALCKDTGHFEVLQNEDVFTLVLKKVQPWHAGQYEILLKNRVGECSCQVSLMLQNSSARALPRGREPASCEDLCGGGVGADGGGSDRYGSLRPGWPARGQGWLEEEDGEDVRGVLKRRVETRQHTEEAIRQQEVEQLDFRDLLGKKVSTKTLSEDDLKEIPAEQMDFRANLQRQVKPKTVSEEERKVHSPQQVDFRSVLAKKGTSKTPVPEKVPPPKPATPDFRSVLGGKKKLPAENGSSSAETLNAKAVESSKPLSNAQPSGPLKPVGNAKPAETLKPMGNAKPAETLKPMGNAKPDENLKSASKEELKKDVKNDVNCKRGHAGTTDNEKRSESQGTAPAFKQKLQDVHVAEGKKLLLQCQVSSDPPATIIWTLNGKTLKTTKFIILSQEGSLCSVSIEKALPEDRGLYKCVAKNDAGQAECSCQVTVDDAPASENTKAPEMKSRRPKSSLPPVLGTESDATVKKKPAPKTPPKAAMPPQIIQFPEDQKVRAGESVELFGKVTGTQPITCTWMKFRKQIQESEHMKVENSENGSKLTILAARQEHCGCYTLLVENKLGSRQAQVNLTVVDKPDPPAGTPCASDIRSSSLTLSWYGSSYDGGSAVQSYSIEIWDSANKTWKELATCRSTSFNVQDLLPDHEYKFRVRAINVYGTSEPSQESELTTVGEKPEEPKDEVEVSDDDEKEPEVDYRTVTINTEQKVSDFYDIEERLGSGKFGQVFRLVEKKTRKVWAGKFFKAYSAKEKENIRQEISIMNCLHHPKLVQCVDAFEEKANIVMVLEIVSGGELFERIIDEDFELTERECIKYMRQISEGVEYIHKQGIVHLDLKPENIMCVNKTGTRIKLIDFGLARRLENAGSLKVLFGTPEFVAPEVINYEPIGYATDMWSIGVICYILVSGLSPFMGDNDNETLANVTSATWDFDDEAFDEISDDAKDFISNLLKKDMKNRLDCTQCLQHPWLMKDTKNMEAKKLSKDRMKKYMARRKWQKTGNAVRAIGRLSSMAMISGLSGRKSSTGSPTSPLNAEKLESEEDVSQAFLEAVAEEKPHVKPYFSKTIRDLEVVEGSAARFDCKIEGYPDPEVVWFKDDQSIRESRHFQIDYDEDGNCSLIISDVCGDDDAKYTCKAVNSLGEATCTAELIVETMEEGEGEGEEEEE
Procedure: as §1

MASTL = target: T11, MASTL (Homo sapiens, UniProt Q96GX5)
T11 construct: purchased Reaction Biology Europe GmbH (formerly ProQinase)
T11 sequence (Q96GX5 1-879): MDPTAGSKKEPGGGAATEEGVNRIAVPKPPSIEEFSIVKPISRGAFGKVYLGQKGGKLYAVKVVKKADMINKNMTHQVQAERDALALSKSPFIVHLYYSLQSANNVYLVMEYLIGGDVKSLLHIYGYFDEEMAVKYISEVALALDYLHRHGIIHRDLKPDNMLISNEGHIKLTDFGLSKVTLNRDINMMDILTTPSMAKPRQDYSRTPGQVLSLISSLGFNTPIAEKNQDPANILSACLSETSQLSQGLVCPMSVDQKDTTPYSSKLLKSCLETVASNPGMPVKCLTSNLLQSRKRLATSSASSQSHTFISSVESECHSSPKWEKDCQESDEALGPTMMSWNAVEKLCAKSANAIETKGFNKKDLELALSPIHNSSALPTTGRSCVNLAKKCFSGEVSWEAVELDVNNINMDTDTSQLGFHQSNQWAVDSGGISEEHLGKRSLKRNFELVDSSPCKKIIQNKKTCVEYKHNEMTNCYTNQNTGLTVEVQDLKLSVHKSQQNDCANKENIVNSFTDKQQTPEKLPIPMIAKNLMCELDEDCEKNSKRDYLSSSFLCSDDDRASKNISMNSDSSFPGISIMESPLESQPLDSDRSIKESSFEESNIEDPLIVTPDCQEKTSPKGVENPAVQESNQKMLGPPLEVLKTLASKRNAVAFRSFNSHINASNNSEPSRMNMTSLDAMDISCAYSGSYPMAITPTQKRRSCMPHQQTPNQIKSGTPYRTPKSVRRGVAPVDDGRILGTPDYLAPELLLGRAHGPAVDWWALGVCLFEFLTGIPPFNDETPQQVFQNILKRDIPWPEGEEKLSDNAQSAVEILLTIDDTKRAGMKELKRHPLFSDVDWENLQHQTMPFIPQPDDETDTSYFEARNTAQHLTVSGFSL
Procedure: as §1

FYN = target: T12, FYN (Homo sapiens, UniProt P06241)
T12 construct: purchased Reaction Biology Europe GmbH (formerly ProQinase)
Procedure: as §1

CK2α1 = target: T13, CK2α1 (Homo sapiens, UniProt P68400)
T13 construct: purchased Reaction Biology Europe GmbH (formerly ProQinase)
T13 sequence (P68400 whole entry): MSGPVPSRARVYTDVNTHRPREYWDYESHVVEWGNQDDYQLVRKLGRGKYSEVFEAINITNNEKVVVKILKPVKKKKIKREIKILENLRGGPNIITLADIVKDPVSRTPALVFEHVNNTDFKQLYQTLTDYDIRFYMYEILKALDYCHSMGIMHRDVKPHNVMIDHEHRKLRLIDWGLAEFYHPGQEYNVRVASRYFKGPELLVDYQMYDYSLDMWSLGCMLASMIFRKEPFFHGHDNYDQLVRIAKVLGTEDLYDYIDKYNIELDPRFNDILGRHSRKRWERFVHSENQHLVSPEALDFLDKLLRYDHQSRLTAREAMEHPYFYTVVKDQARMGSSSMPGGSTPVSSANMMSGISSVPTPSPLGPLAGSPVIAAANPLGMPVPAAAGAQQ
Procedure: as §1

VEGFR2 = target: T14, VEGFR2 (Homo sapiens, UniProt P35968)
T14 construct: purchased Reaction Biology Europe GmbH (formerly ProQinase)
Procedure: as §1

T1 sequence (Q9BUB5 whole entry): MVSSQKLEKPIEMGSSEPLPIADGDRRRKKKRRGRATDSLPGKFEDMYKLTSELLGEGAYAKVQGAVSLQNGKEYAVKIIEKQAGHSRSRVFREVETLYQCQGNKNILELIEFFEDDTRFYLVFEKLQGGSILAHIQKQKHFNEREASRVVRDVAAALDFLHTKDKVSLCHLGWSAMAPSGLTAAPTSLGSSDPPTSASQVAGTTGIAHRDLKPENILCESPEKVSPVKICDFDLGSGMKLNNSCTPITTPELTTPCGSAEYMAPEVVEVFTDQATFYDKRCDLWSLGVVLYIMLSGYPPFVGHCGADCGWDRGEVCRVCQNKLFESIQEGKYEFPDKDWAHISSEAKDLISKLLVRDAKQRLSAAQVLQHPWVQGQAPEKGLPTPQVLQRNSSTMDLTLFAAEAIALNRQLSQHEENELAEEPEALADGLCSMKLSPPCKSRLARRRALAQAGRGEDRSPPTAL

Structure (SMILES) | residual kinase activity (MKNK1; 0.3 µM) | residual kinase activity (PAK7; 0.3 µM) | residual kinase activity (BMPR1B; 0.3 µM) | residual kinase activity (EPHA5; 0.3 µM) | residual kinase activity (CAMK1D; 0.3 µM) | residual kinase activity (MARK1; 0.3 µM) | residual kinase activity (PKCμ; 0.3 µM) | residual kinase activity (HIPK2; 0.3 µM) | residual kinase activity (ABL1; 0.3 µM) | residual kinase activity (MYLK; 0.3 µM) | residual kinase activity (MASTL; 0.3 µM) | residual kinase activity (FYN; 0.3 µM) | residual kinase activity (CK2α1; 0.3 µM) | residual kinase activity (VEGFR2; 0.3 µM) | also measured
c1ccc(CNc2cc(-c3c[nH]c4ncccc34)ccn2)cc1 [meriolin 36] | 48 % of control | 42 % of control | 75 % of control | 146 % of control | 70 % of control | 90 % of control | 63 % of control | 22 % of control | 80 % of control | 62 % of control | 64 % of control | 22 % of control | 99 % of control | 60 % of control | residual kinase activity (MKNK1; 3 µM): 16 % of control; residual kinase activity (PAK7; 3 µM): 9 % of control; residual kinase activity (BMPR1B; 3 µM): 45 % of control; residual kinase activity (EPHA5; 3 µM): 84 % of control; residual kinase activity (CAMK1D; 3 µM): 38 % of control; residual kinase activity (MARK1; 3 µM): 43 % of control; residual kinase activity (PKCμ; 3 µM): 23 % of control; residual kinase activity (HIPK2; 3 µM): 3 % of control; residual kinase activity (ABL1; 3 µM): 26 % of control; residual kinase activity (MYLK; 3 µM): 25 % of control; residual kinase activity (MASTL; 3 µM): 26 % of control; residual kinase activity (FYN; 3 µM): 3 % of control; residual kinase activity (CK2α1; 3 µM): 53 % of control; residual kinase activity (VEGFR2; 3 µM): 19 % of control
COc1ccnc2[nH]cc(-c3cc(N)nc(N)c3)c12 [meriolin 16] | 70 % of control | 81 % of control | 91 % of control | 102 % of control | 81 % of control | 101 % of control | 24 % of control | 4 % of control | 99 % of control | 71 % of control | 56 % of control | 69 % of control | 104 % of control | 98 % of control | residual kinase activity (MKNK1; 0.03 µM): 97 % of control; residual kinase activity (PAK7; 0.03 µM): 89 % of control; residual kinase activity (BMPR1B; 0.03 µM): 91 % of control; residual kinase activity (EPHA5; 0.03 µM): 115 % of control; residual kinase activity (CAMK1D; 0.03 µM): 102 % of control; residual kinase activity (MARK1; 0.03 µM): 121 % of control; residual kinase activity (PKCμ; 0.03 µM): 77 % of control; residual kinase activity (HIPK2; 0.03 µM): 36 % of control; residual kinase activity (ABL1; 0.03 µM): 103 % of control; residual kinase activity (MYLK; 0.03 µM): 103 % of control; residual kinase activity (MASTL; 0.03 µM): 87 % of control; residual kinase activity (FYN; 0.03 µM): 93 % of control; residual kinase activity (CK2α1; 0.03 µM): 106 % of control; residual kinase activity (VEGFR2; 0.03 µM): 102 % of control
